Measurements taken from patent US9403808B2, “Pyrazine derivatives” (Hoffmann-La Roche Inc., priority 2011, dated 2016).
Read-outs that look alike come from different tables or passages of the source.

Key:
human CB2 receptors = human CB2 receptors (Homo sapiens (Human), UniProt P34972); test: functional cAMP assay, CB2; type: cell-based
Procedure: (§1) CHO cells expressing human CB1 or CB2 receptors are seeded 17-24 hours prior to the experiment 50.000 cells per well in a black 96 well plate with flat clear bottom (Corning Costar #3904) in DMEM (Invitrogen No. 31331), 1×HT supplement, with 10% fetal calf serum and incubated at 5% CO2 and 37° C. in a humidified incubator. The growth medium was exchanged with Krebs Ringer Bicarbonate buffer with 1 mM IBMX and incubated at 30° C. for 30 min. Compounds were added to a final assay volume of 100 μl and incubated for 30 min at 30° C. Using the cAMP-Nano-TRF detection kit the assay (Roche Diagnostics) was stopped by the addition of 50 μl lysis reagent (Tris, NaCl, 1.5% Triton X100, 2.5% NP40, 10% NaN3) and 50 μl detection solutions (20 μM mAb Alexa700-cAMP 1:1, and 48 μM Ruthenium-2-AHA-cAMP) and shaken for 2 h at room temperature. The time-resolved energy transfer is measured by a TRF reader (Evotec Technologies GmbH), equipped with a ND:YAG laser as excitation source. The plate is measured twice with the excitation at 355 nm and at the emission with a delay of 100 ns and a gate of 100 ns, total exposure time 10s at 730 (bandwidth 30 nm) or 645 nm (bandwidth 75 nm), respectively. The FRET signal is calculated as follows: FRET=T730-Alexa730-P(T645-B645) with P=Ru730-B730/Ru645-B645, where T730 is the test well measured at […], T645 is the test well measured at 645 nm, B730 and B645 are the buffer controls at 730 nm and 645 nm, respectively. cAMP content is determined from the function of a standard curve spanning from 10 μM to 0.13 nM cAMP.
(§2) EC50 values were determined using Activity Base analysis (ID Business Solution, Limited). The EC50 values for a wide range of cannabinoid agonists generated from this assay were in agreement with the values published in the scientific literature.

human CB1 receptors = human CB1 receptors (Homo sapiens (Human), UniProt P21554); test: functional cAMP assay, CB1; type: cell-based
Procedure: as §1, §2

[1] = functional cAMP assay, CHO cells expressing human CB2, read-out: human CB2 EC50
[2] = functional cAMP assay, CHO cells expressing human CB1, read-out: human CB1 EC50

human CB2 receptors, sequence (P34972 whole entry): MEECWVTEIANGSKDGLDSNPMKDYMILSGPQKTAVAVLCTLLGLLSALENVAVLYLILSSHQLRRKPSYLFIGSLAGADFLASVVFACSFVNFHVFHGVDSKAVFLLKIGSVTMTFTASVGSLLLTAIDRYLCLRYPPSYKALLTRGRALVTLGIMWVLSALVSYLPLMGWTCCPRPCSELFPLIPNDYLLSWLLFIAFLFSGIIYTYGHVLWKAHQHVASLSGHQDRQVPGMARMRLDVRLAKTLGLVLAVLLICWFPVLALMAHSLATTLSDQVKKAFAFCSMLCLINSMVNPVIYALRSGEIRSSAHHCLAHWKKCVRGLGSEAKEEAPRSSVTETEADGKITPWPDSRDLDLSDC
human CB1 receptors, sequence (P21554 whole entry): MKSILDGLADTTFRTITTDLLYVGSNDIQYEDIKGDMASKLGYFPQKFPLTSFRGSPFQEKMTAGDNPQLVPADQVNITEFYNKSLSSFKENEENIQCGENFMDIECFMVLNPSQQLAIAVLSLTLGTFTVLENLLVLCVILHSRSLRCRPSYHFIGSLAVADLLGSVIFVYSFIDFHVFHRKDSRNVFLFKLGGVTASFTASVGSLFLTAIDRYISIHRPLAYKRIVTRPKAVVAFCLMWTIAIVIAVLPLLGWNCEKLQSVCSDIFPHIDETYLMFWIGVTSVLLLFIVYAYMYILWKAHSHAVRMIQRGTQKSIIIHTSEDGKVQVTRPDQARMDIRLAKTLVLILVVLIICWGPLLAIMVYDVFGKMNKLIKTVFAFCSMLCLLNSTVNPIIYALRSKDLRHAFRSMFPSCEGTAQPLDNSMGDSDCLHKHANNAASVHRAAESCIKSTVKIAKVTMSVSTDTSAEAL

| SMILES | EC50 (human CB2 receptors; [1]) | EC50 (human CB1 receptors; [2]) | EC50 (human CB2 receptors) | EC50 (human CB1 receptors) |
| --- | --- | --- | --- | --- |
| O=C(NC1(CO)CCCCC1)c1cnc(C2CC2)c(OCC2CC2)n1 [Example 94, 5-Cyclopropyl-6-cyclopropylmethoxy-pyrazine-2-carboxylic acid (1-hydroxymethyl-cyclohexyl)-amide] | 12 nM | > 10000 nM |  |  |
| Cc1nc([C@H](NC(=O)c2cnc(N3CC(F)(F)C3)c(OCC3CC3)n2)C2CC2)no1 (stereo in doubt) [Example 43, 6-Cyclopropylmethoxy-5-(3,3-difluoro-azetidin-1-yl)-pyrazine-2-carboxylic acid [(RS)-cyclopropyl-(5-methyl-[1,2,4]oxadiazol-3-yl)-methyl]-amide] |  |  | 40.9 nM | > 10000 nM |
| CN(C)C(=O)C(CC1CCC1)NC(=O)c1cnc(N2CC(F)(F)C2)c(OCC2CC2)n1 (centres unmarked) [Example 97, 6-Cyclopropylmethoxy-5-(3,3-difluoro-azetidin-1-yl)-pyrazine-2-carboxylic acid (2-cyclobutyl-1-dimethylcarbamoyl-ethyl)-amide] | 20.4 nM | > 10000 nM |  |  |
| NC(=O)C(CC1CCC1)NC(=O)c1cnc(C2CC2)c(OCC2CC2)n1 (centres unmarked) [Example 104, 5-Cyclopropyl-6-cyclopropylmethoxy-pyrazine-2-carboxylic acid (1-carbamoyl-2-cyclobutyl-ethyl)-amide] | 42.9 nM | > 10000 nM |  |  |
| NC(=O)[C@H](CC1CC1)NC(=O)c1cnc(N2CC(F)(F)C2)c(OCC2CC2)n1 [Example 39, 6-Cyclopropylmethoxy-5-(3,3-difluoro-azetidin-1-yl)-pyrazine-2-carboxylic acid ((S)-1-carbamoyl-2-cyclopropyl-ethyl)-amide] | 11 nM | > 10000 nM |  |  |
| CNC(=O)[C@@H](NC(=O)c1cnc(N2CC(F)(F)C2)c(OCC2CC2)n1)C(C)(C)C [Example 8, 6-Cyclopropylmethoxy-5-(3,3-difluoro-azetidin-1-yl)-pyrazine-2-carboxylic acid ((S)-2,2-dimethyl-1-methylcarbamoyl-propyl)-amide] | 18.5 nM | > 10000 nM |  |  |
| O=C(Nc1ccc(Cl)s1)c1cnc(N2CC(F)(F)C2)c(OCC2CC2)n1 [Example 93, 6-Cyclopropylmethoxy-5-(3,3-difluoro-azetidin-1-yl)-pyrazine-2-carboxylic acid (5-chloro-thiophen-2-yl)-amide] | 74.1 nM | > 10000 nM |  |  |
| CNC(=O)[C@H](CC(C)C)NC(=O)c1cnc(C2CC2)c(OCC2CC2)n1 [Example 26, 5-Cyclopropyl-6-cyclopropylmethoxy-pyrazine-2-carboxylic acid ((S)-3-methyl-1-methylcarbamoyl-butyl)-amide] | 13.5 nM | > 10000 nM |  |  |
| CC(C)C(NC(=O)c1cnc(N2CC(F)(F)C2)c(OCC2CC2)n1)C(=O)N(C)C (centres unmarked) [Example 91, 6-Cyclopropylmethoxy-5-(3,3-difluoro-azetidin-1-yl)-pyrazine-2-carboxylic acid (1-dimethylcarbamoyl-2-methyl-propyl)-amide] | 20.5 nM | > 10000 nM |  |  |
| CC(C)(C)[C@H](NC(=O)c1cnc(C2CC2)c(OCC2CC2)n1)C(=O)O [Example 44, (S)-2-[(5-Cyclopropyl-6-cyclopropylmethoxy-pyrazine-2-carbonyl)-amino]-3,3-dimethyl-butyric acid] | 442 nM | > 10000 nM |  |  |
| Cc1nc([C@H](NC(=O)c2cnc(C3CC3)c(OCC3CC3)n2)C2CC2)no1 (stereo in doubt) [Example 41, 5-Cyclopropyl-6-cyclopropylmethoxy-pyrazine-2-carboxylic acid [(RS)-cyclopropyl-(5-methyl-[1,2,4]oxadiazol-3-yl)-methyl]-amide] |  |  | 518 nM | > 10000 nM |
| CNC(=O)[C@H](CC1CC1)NC(=O)c1cnc(N2CC(F)(F)C2)c(OCC2CC2)n1 [Example 31, 6-Cyclopropylmethoxy-5-(3,3-difluoro-azetidin-1-yl)-pyrazine-2-carboxylic acid ((S)-2-cyclopropyl-1-methylcarbamoyl-ethyl)-amide] | 124 nM | > 10000 nM |  |  |
| CCC(CC)(NC(=O)c1cnc(C2CC2)c(OCC2CC2)n1)C(=O)OC [Example 30, 2-[(5-Cyclopropyl-6-cyclopropylmethoxy-pyrazine-2-carbonyl)-amino]-2-ethyl-butyric acid methyl ester] | 1.4 nM | 255 nM |  |  |
| Cc1nc(C(C)(C)NC(=O)c2cnc(N3CC(F)(F)C3)c(-c3cccc(Cl)c3)n2)no1 [Example 4, 6-(3-Chloro-phenyl)-5-(3,3-difluoro-azetidin-1-yl)-pyrazine-2-carboxylic acid [1-methyl-1-(5-methyl-[1,2,4]oxadiazol-3-yl)-ethyl]-amide] | 108 nM | > 10000 nM |  |  |
| CNC(=O)[C@H](CC(C)C)NC(=O)c1cnc(N2CC(F)(F)C2)c(OCC2CC2)n1 [Example 33, 6-Cyclopropylmethoxy-5-(3,3-difluoro-azetidin-1-yl)-pyrazine-2-carboxylic acid ((S)-3-methyl-1-methylcarbamoyl-butyl)-amide] | 11.8 nM | > 10000 nM |  |  |
| CC(C)(C#N)NC(=O)c1cnc(C2CC2)c(-c2cccc(Cl)c2)n1 [Example 2, 6-(3-Chloro-phenyl)-5-cyclopropyl-pyrazine-2-carboxylic acid (cyano-dimethyl-methyl)-amide] | 104 nM | > 10000 nM |  |  |
| CC(C)(CC(N)=O)NC(=O)c1cnc(N2CC(F)(F)C2)c(OCC2CC2)n1 [Example 107, 6-Cyclopropylmethoxy-5-(3,3-difluoro-azetidin-1-yl)-pyrazine-2-carboxylic acid (2-carbamoyl-1,1-dimethyl-ethyl)-amide] | 11.8 nM | 874 nM |  |  |
| CC(C)(NC(=O)c1cnc(C2CC2)c(OCC2CC2)n1)c1noc(N)n1 [Example 57, 5-Cyclopropyl-6-cyclopropylmethoxy-pyrazine-2-carboxylic acid [1-(5-amino-[1,2,4]oxadiazol-3-yl)-1-methyl-ethyl]-amide] | 221 nM | > 10000 nM |  |  |
| Cc1nc(C(C)(NC(=O)c2cnc(N3CC(F)(F)C3)c(OCC3CC3)n2)C2CC2)no1 (centres unmarked) [Example 61, 6-Cyclopropylmethoxy-5-(3,3-difluoro-azetidin-1-yl)-pyrazine-2-carboxylic acid [1-cyclopropyl-1-(5-methyl-[1,2,4]oxadiazol-3-yl)-ethyl]-amide] | 17.9 nM | > 10000 nM |  |  |
| CN(C)C(=O)C(CC1CCC1)NC(=O)c1cnc(C2CC2)c(OCC2CC2)n1 (centres unmarked) [Example 103, 5-Cyclopropyl-6-cyclopropylmethoxy-pyrazine-2-carboxylic acid (2-cyclobutyl-1-dimethylcarbamoyl-ethyl)-amide] | 19.2 nM | > 10000 nM |  |  |
| CC(C)(C)C(CO)NC(=O)c1cnc(C2CC2)c(OCC2CC2)n1 (centres unmarked) [Example 19, 5-Cyclopropyl-6-cyclopropylmethoxy-pyrazine-2-carboxylic acid (1-hydroxymethyl-2,2-dimethyl-propyl)-amide] | 53.5 nM | > 10000 nM |  |  |
| COCCC(C)(C)NC(=O)c1cnc(N2CC(F)(F)C2)c(OCC2CC2)n1 [Example 99, 6-Cyclopropylmethoxy-5-(3,3-difluoro-azetidin-1-yl)-pyrazine-2-carboxylic acid (3-methoxy-1,1-dimethyl-propyl)-amide] | 10.3 nM | > 10000 nM |  |  |
